Laboratory results reported in ChEMBL document CHEMBL1139472, “Synthesis of N-{4-[(2,4-diamino-5-methyl-4,7-dihydro-3H-pyrrolo[2,3-d]pyrimidin-6-yl)thio]benzoyl}-L-glutamic acid and N-{4-[(2-amino-4-oxo-5-methyl-4,7-dihydro-3H-pyrrolo[2,3-d]pyrimidin-6-yl)thio]benzoyl}-L-glutamic acid as dual inhibitors of dihydrofolate reductase and thymidylate synthase and …” (J Med Chem, 2005).

Key:
Dihydrofolate reductase [1] = target: Dihydrofolate reductase (Homo sapiens, UniProt P00374)
CCRF-CEM [2] = test: cells; settings: Homo sapiens
Description: Growth inhibition of human CCRF-CEM cells

[3] = target: T1, Bifunctional dihydrofolate reductase-thymidylate synthase (Toxoplasma gondii, UniProt Q07422); test: Inhibition of Toxoplasma gondii DHFR
T1 sequence (Q07422 whole entry): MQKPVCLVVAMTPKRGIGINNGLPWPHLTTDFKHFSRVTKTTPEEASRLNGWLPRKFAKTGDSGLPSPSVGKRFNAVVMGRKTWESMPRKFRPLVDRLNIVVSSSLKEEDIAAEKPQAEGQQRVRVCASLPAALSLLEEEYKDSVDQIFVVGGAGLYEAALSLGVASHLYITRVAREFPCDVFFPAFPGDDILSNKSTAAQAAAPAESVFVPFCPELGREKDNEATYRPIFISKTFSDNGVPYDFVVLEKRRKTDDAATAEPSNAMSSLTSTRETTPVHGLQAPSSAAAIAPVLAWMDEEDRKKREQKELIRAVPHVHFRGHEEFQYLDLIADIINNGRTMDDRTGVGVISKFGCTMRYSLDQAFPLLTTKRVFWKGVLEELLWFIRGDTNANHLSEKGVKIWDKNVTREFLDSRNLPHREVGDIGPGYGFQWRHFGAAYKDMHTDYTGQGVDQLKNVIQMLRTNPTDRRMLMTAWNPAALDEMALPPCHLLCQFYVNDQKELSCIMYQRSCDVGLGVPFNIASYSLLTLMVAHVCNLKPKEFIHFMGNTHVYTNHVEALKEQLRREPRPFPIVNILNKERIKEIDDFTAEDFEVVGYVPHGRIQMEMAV

Thymidylate synthase [4] = target: Thymidylate synthase (Escherichia coli, UniProt C3SWJ7); test: Inhibition of Escherichia coli thymidylate synthase
Sequence of Thymidylate synthase (Escherichia coli, UniProt C3SWJ7) (C3SWJ7 whole entry): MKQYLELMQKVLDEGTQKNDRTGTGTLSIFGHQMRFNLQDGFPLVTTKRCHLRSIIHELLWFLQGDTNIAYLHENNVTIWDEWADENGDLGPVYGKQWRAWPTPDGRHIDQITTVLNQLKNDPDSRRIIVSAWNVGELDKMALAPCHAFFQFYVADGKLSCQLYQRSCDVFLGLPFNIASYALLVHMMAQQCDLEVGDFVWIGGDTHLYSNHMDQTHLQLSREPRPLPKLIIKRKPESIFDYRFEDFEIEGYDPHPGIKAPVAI

Thymidylate synthase [5] = target: Thymidylate synthase (Homo sapiens, UniProt P04818)
Sequence of Thymidylate synthase (Homo sapiens, UniProt P04818) (P04818 whole entry): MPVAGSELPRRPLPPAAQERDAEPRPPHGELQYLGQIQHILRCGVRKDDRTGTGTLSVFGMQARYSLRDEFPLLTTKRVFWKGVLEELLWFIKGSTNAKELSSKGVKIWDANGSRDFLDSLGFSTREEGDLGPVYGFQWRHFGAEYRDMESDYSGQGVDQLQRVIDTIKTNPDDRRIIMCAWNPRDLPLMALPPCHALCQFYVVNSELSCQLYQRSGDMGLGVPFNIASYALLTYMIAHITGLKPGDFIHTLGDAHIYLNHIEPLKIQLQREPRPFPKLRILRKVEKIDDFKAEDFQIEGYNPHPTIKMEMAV
Description: Inhibition of human thymidylate synthase

CCRF-CEM [6] = test: cells; settings: Homo sapiens, 120 h
[7] = target: T1, Bifunctional dihydrofolate reductase-thymidylate synthase; test: Inhibition of Toxoplasma gondii thymidylate synthase
CCRF-CEM [8] = test: cells; settings: Homo sapiens, 120 h; remark: listed apart in the source
CCRF-CEM [9] = test: cells; settings: Homo sapiens, 120 h; remark: listed apart in the source
Dihydrofolate reductase [10] = target: T2, Dihydrofolate reductase (Escherichia coli, UniProt P0ABQ4)
T2 sequence (P0ABQ4 whole entry): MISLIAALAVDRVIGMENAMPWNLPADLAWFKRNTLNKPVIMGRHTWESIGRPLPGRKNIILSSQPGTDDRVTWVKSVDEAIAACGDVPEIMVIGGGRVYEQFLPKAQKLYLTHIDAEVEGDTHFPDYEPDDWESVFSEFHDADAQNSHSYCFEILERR
Description: Inhibition of Escherichia coli DHFR

CCRF-CEM [11] = test: Protection against 4000 nM N-{4-[(2,4-diamino-5-methyl-4, 7-dihydro-3H-pyrrolo[2,3-d]pyr imidin-6-yl)thio]benzoyl}-L-gl utamic acid-induced growth inhibition in human CCRF-CEM cells assessed as growth at 5 uM relative to control; assay type: functional; parameters: scale not given: the % may be the effect or the level left
CCRF-CEM [12] = test: Protection against 40 nM methotrexate-induced growth inhibition in human CCRF-CEM cells assessed as growth at 5 uM relative to control; assay type: functional; parameters: scale not given: the % may be the effect or the level left
CCRF-CEM [13] = test: Protection of drug-induced growth inhibition by 10 uM leucovorin in human CCRF-CEM cells assessed as growth at 20 nM relative to control; assay type: functional; parameters: scale not given: the % may be the effect or the level left
CCRF-CEM [14] = test: Cell growth in human CCRF-CEM cells at 40 nM relative to control; assay type: functional
CCRF-CEM [15] = test: Protection of drug-induced growth inhibition by 1 uM leucovorin in human CCRF-CEM cells assessed as growth at 20 nM relative to control; assay type: functional; parameters: scale not given: the % may be the effect or the level left
CCRF-CEM [16] = test: Cell growth in human CCRF-CEM cells at 20 nM relative to control; assay type: functional
CCRF-CEM [17] = test: Protection of drug-induced growth inhibition by 0.1 uM leucovorin in human CCRF-CEM cells assessed as growth at 20 nM relative to control; assay type: functional; parameters: scale not given: the % may be the effect or the level left

Sequence of Dihydrofolate reductase (Homo sapiens, UniProt P00374) (P00374 whole entry): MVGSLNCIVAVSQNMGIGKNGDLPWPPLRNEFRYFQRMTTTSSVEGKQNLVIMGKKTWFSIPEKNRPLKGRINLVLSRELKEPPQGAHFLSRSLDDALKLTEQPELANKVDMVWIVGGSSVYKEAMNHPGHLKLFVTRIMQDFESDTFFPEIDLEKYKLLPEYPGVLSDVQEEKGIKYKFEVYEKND

Which IC50 (Dihydrofolate reductase [1]) does the source give for `Cc1c(Sc2ccc(C(=O)N[C@@H](CCC(=O)O)C(=O)O)cc2)[nH]c2nc(N)[nH]c(=O)c12` here?
The IC50 was greater than 240 µM.

And the EC50 (CCRF-CEM [2])?
The EC50 was greater than 20 µM.

What about the IC50 [3] of the same compound?
Its IC50 is 2.2 µM.

And the IC50 (Thymidylate synthase [4])?
Its IC50 is greater than 180 µM.

What about the IC50 (Thymidylate synthase [5]) of the same compound?
Its IC50 is 100 µM.

What about the EC50 (CCRF-CEM [6]) of the same compound?
The EC50 was greater than 20 µM.

And the IC50 [7]?
Its IC50 is 3.6 µM.

And the EC50 (CCRF-CEM [8])?
The EC50 was greater than 20 µM.

And the EC50 (CCRF-CEM [9])?
Its EC50 is greater than 20 µM.

And the IC50 (Dihydrofolate reductase [10])?
Its IC50 is greater than 240 µM.

With `Cc1cn([C@H]2C[C@H](O)[C@@H](CO)O2)c(=O)[nH]c1=O` [DOXRIBTIMINE] as the compound, how does the Activity (CCRF-CEM [11]) read?
Its Activity is 20%.

What about the Activity (CCRF-CEM [12]) of the same compound?
The Activity was 18%.

How did the Activity (CCRF-CEM [13]) turn out when `CN(Cc1cnc2nc(N)nc(N)c2n1)c1ccc(C(=O)N[C@@H](CCC(=O)O)C(=O)O)cc1` [METHOTREXATE] was run?
The Activity was 95%.

What about the Activity (CCRF-CEM [14]) of the same compound?
The Activity was 12%.

And the Activity (CCRF-CEM [15])?
The Activity was 96%.

What about the Activity (CCRF-CEM [16]) of the same compound?
Its Activity is 5%.

What about the Activity (CCRF-CEM [17]) of the same compound?
Its Activity is 90%.

With `Cc1nc2ccc(CN(C)c3ccc(C(=O)N[C@@H](CCC(=O)O)C(=O)O)s3)cc2c(=O)[nH]1` [RALTITREXED] as the compound, how does the IC50 (Dihydrofolate reductase [10]) read?
Its IC50 is 23 µM.
